Patent EP4782450A1, “NOVEL SKELETAL DERIVATIVE EFFECTIVE FOR HER2 MUTATION, AND PHARMACEUTICAL COMPOSITION COMPRISING SAME” (Hanmi Pharm. Co., Ltd., priority 2023, dated 2025)

What was measured:
Ba/F3 HER2 A775insYVMA = test: Growth inhibition of Ba/F3 cells engineered to overexpress HER2 A775_G776insYVMA (CellTiter-Glo luminescence); assay type: cell-based; conditions: Mus musculus, BaF3, 72 hours, concentrations 1000 to 0.32 nM, read-out: Ba/F3 HER2^YVMA GI50 class
Method: (§1) Experimental Example: Growth inhibition of Ba/F3 HER2 A775insYVMA and wild-type Ba/F3 cells
(§2) In this Experimental Example, the compounds obtained in Examples 1 to 92 were evaluated for their ability to inhibit growth of cells harboring either the HER2 A775insYVMA mutation or wild-type EGFR. For this purpose, Ba/F3 cells (ATCC, USA) were genetically engineered to overexpress either HER2 A775_G776insYVMA or wild-type EGFR, and the growth of these engineered Ba/F3 cells were monitored in the presence of the compounds described in the Examples to evaluate their effects on growth inhibition.
(§3) Specifically, culture flasks of the engineered Ba/F3 cells suspended in RPMI 1640 medium supplemented with 10% fetal bovine serum (FBS) and 1% penicillin/streptomycin (Gibco BRL, USA) were placed in a cell incubator and incubated at 37°C and 5% CO2 level to allow them to reach a stable logarithmic growth phase. The cells were then harvested by centrifugation to remove the old media and placed into a 96-well plate by dividing them into 100 µL aliquots per well at a dilution of 1×10^5 cells/mL in fresh media. Each of the compounds prepared in the preceding Examples were dissolved in 99.5% (cell culture grade) dimethylsulfoxide (DMSO) to prepare a stock solution of 10 mM concentration, which were serially diluted in the culture medium to final concentrations of 1000, 200, 40, 8, 1.6 and 0.32 nM for HER2 A775insYVMA Ba/F3 cells and concentrations of 10000, 5000, 1000, 200, 40 and 8 nM for wild-type EGFR overexpressing Ba/F3 cells.
(§4) To each aliquot of cells in the 96-well plate, a 50 µL test solution comprising one of the compounds was added to result in each well a 150 µL volume of cells with a compound in a final concentration ranging from 10 µM to 0.32 nM. The Ba/F3 cells treated with the test solution were incubated for 72 hours at 37°C and 5% CO2 level and underwent a 30-minute acclimation by placing the 96-well plate carrying the cells in ambient temperature. Thereafter, to each well was added 50 µL CellTiter-Glo® Luminescent Cell Assay Reagent (CTG, Promega, USA). After allowing 10 minutes to stabilize the signal, luminescence intensity was measured using a microplate reader. The half-maximal growth inhibition concentration (GI50) was calculated from the luminescence readout of the test compounds with the difference between the initial and final cell densities for the well untreated with a compound set at 100% growth. Nonlinear regression analysis based on log[inhibitor] vs. normalized response mode of the Graph Prism software was used for calculating GI50 for each compound, which are summarized in Table 6. The calculated GI50 values are classified in Table 6 into four categories: A for GI50 values less than 100 nM, B for GI50 values more than 100 nM but less than 1,000 nM, C for GI50 values more than 1,000 nM but less than 5,000 nM, and D for GI50 values of more than 5,000 nM.

[1] = system: wild-type EGFR overexpressing Ba/F3 cells; test: Growth inhibition of Ba/F3 cells engineered to overexpress wild-type EGFR (CellTiter-Glo luminescence); assay type: cell-based; conditions: Mus musculus, BaF3, 72 hours, concentrations 10000 to 8 nM, read-out: Ba/F3 EGFR^WT GI50 class
Method: as §1, §2, §3, §4

SMILES | GI50 (Ba/F3 HER2 A775insYVMA) [nM] | GI50 [1] [nM]
C=CC(=O)N(C/C=C/c1ccc2ncnc(Nc3ccc(Oc4ccc5c(c4)ncn5C)c(C)c3)c2n1)C(C)(C)C [Example 53, (E)-N-(tert-butyl)-N-(3-(4-((3-methyl-4-((1-methyl-1H-benzo[d]imidazol-5-yl)oxy)phenyl)amino)pyrido[3,2-d]pyrimidin-6-yl)allyl)acrylamide] | < 100 | 1000 to 5000
C=CC(=O)N(C)CC/C=C/c1ccc2ncnc(Nc3ccc(Oc4ccc5c(c4)ncn5C)c(C)c3)c2n1 [Example 26, (E)-N-methyl-N-(4-(4-((3-methyl-4-((1-methyl-1H-benzo[d]imidazol-5-yl)oxy)phenyl)amino)pyrido[3,2-d]pyrimidin-6-yl)but-4-en-1-yl)acrylamide] | < 100 | 1000 to 5000
C=CC(=O)N1CC(/C=C/c2ccc3ncnc(Nc4ccc(Oc5ccc6cn(C)nc6c5)c(C)c4)c3n2)C1 [Example 48, (E)-1-(3-(2-(4-((3-methyl-4-((2-methyl-2H-indazol-6-yl)oxy)phenyl)amino)pyrido[3,2-d]pyrimidin-6-yl)vinyl)azetidin-1-yl)prop-2-en-1-one] | 100 to 1000 | > 5000
C=CC(=O)N(C)[C@@H](C)/C=C/c1ccc2ncnc(Nc3ccc(Oc4ccc5c(c4)ncn5C)c(C)c3)c2n1 [Example 51, (S,E)-N-methyl-N-(4-(4-((3-methyl-4-((1-methyl-1H-benzo[d]imidazol-5-yl)oxy)phenyl)amino)pyrido[3,2-d]pyrimidin-6-yl)but-3-en-2-yl)acrylamide] | < 100 | 1000 to 5000
C=CC(=O)N1CCCC[C@@H]1C#Cc1ccc2ncnc(Nc3ccc(Oc4ccn5ncnc5c4)c(C)c3)c2n1 [Example 82, (R)-1-(2-((4-((4-([1,2,4]triazolo[1,5-a]pyridin-7-yloxy)-3-methylphenyl)amino)pyrido[3,2-d]pyrimidin-6-yl)ethynyl)piperidin-1-yl)prop-2-en-1-one] | < 100 | 100 to 1000
Cc1cc(Nc2ncnc3ccc(/C=C/CN(C)C(=O)/C=C/CN4CCCCC4)nc23)ccc1Oc1ccc2c(c1)ncn2C [Example 61, (E)-N-methyl-N-((E)-3-(4-((3-methyl-4-((1-methyl-1H-benzo[d]imidazol-5-yl)oxy)phenyl)amino)pyrido[3,2-d]pyrimidin-6-yl)allyl)-4-(piperidin-1-yl)but-2-enamide] | < 100 | 1000 to 5000
C=CC(=O)N1CCC[C@H]1C#Cc1ccc2ncnc(Nc3ccc(Oc4ccn5ncnc5c4)c(C)c3)c2c1 [Example 75, (S)-1-(2-((4-((4-([1,2,4]triazolo[1,5-a]pyridin-7-yloxy)-3-methylphenyl)amino)quinazolin-6-yl)ethynyl)pyrrolidin-1-yl)prop-2-en-1-one] | < 100 | 100 to 1000
C=CC(=O)N1CCC[C@@H]1C#Cc1ccc2ncnc(Nc3ccc(Oc4ccc5c(c4)ncn5C)c(C)c3)c2c1 [Example 85, (R)-1-(2-((4-((3-methyl-4-((1-methyl-1H-benzo[d]imidazol-5-yl)oxy)phenyl)amino)quinazolin-6-yl)ethynyl)pyrrolidin-1-yl)prop-2-en-1-one] | < 100 | 100 to 1000
C=CC(=O)NCCOc1ccc2ncnc(Nc3ccc(Oc4ccc5c(c4)ncn5C)c(C)c3)c2c1 [Example 10, N-(2-((4-((3-methyl-4-((1-methyl-1H-benzo[d]imidazol-5-yl)oxy)phenyl)amino)quinazolin-6-yl)oxy)ethyl)acrylamide] | < 100 | 1000 to 5000
C=CC(=O)N1CCC[C@@H]1C#Cc1ccc2ncnc(Nc3ccc(OC4=CC5N=CN(C)C5C=C4)c(C)c3)c2n1 (stereo partly drawn) [Example 86, 1-((2R)-2-((4-((3-methyl-4-((1-methyl-3a,7a-dihydro-1H-benzo[d]imidazol-5-yl)oxy)phenyl)amino)pyrido[3,2-d]pyrimidin-6-yl)ethynyl)pyrrolidin-1-yl)prop-2-en-1-one] | < 100 | 1000 to 5000
C=CC(=O)N(C)C/C=C/c1ccc2ncnc(Nc3ccc(Oc4ccc5ocnc5c4)c(C)c3)c2n1 [Example 57, (E)-N-(3-(4-((4-(benzo[d]oxazol-5-yloxy)-3-methylphenyl)amino)pyrido[3,2-d]pyrimidin-6-yl)allyl)-N-methylacrylamide] | < 100 | 100 to 1000
C=CC(=O)N1CCCC[C@@H]1C#Cc1ccc2ncnc(Nc3ccc(Oc4ccc5c(c4)ncn5C)c(C)c3)c2n1 [Example 88, (R)-1-(2-((4-((3-methyl-4-((1-methyl-1H-benzo[d]imidazol-5-yl)oxy)phenyl)amino)pyrido[3,2-d]pyrimidin-6-yl)ethynyl)piperidin-1-yl)prop-2-en-1-one] | < 100 | 1000 to 5000
C=CC(=O)N(C)CCCNc1ccc2ncnc(Nc3ccc(Oc4ccc5c(c4)ncn5C)c(C)c3)c2n1 [Example 17, N-methyl-N-(3-((4-((3-methyl-4-((1-methyl-1H-benzo[d]imidazol-5-yl)oxy)phenyl)amino)pyrido[3,2-d]pyrimidin-6-yl)amino)propyl)acrylamide] | < 100 | > 5000
C=CC(=O)N1CC(/C=C/c2ccc3ncnc(Nc4cc(C)c(Oc5ccc6c(c5)ncn6C)cc4F)c3n2)C1 [Example 45] | < 100 | > 5000
Cc1cc(Nc2ncnc3ccc(/C=C/CNC(=O)/C=C/CN(C)C)nc23)ccc1Oc1ccc2c(c1)ncn2C [Example 40, (E)-4-(dimethylamino)-N-((E)-3-(4-((3-methyl-4-((1-methyl-1H-benzo[d]imidazol-5-yl)oxy)phenyl)amino)pyrido[3,2-d]pyrimidin-6-yl)allyl)but-2-enamide] | < 100 | > 5000
C=CC(=O)N(C)C/C=C/c1ccc2ncnc(Nc3ccc(Oc4ccc5c(c4)ncn5C)c(C)c3)c2c1 [Example 22] | < 100 | 1000 to 5000
C=CC(=O)N(C)CC#Cc1ncc2ncnc(Nc3ccc(Oc4ccn5ncnc5c4)c(C)c3)c2n1 [Example 69, N-(3-(8-((4-([1,2,4]triazolo[1,5-a]pyridin-7-yloxy)-3-methylphenyl)amino)pyrimido[5,4-d]pyrimidin-2-yl)prop-2-yn-1-yl)-N-methylacrylamide] | 100 to 1000 | 100 to 1000
C=CC(=O)N(C)CCN(C)c1ncc2ncnc(Nc3ccc(Oc4ccn5ncnc5c4)c(C)c3)c2n1 [Example 14, N-(2-((8-((4-([1,2,4]triazolo[1,5-a]pyridin-7-yloxy)-3-methylphenyl)amino)pyrimido[5,4-d]pyrimidin-2-yl)(methyl)amino)ethyl)-N-methylacrylamide] | 1000 to 5000 | 1000 to 5000
C=CC(=O)N(C)C/C=C/c1ccc2ncnc(Nc3ccc(Oc4ccc5c(c4)ncn5C)c(C)c3)c2n1 [Example 23, (E)-N-methyl-N-(3-(4-((3-methyl-4-((1-methyl-1H-benzo[d]imidazol-5-yl)oxy)phenyl)amino)pyrido[3,2-d]pyrimidin-6-yl)aryl)acrylamide] | < 100 | > 5000
C=CC(=O)N1CC(/C=C/c2ccc3ncnc(Nc4ccc(Oc5cnc6c(c5)ncn6C)c(C)c4)c3n2)C1 [Example 44] | < 100 | > 5000
C=CC(=O)N(C)CCOc1ccc2ncnc(Nc3ccc(Oc4ccn5ncnc5c4)c(C)c3)c2c1 [Example 1, N-(2-((4-((4-([1,2,4]triazolo[1,5-a]pyridin-7-yloxy)-3-methylphenyl)amino)quinazolin-6-yl)oxy)ethyl)-N-methylacrylamide] | < 100 | 100 to 1000
C=CC(=O)N(C)[C@H](C)/C=C/c1ccc2ncnc(Nc3ccc(Oc4ccc5c(c4)ncn5C)c(C)c3)c2n1 [Example 52, (R,E)-N-methyl-N-(4-(4-((3-methyl-4-((1-methyl-1H-benzo[d]imidazol-5-yl)oxy)phenyl)amino)pyrido[3,2-d]pyrimidin-6-yl)but-3-en-2-yl)acrylamide] | < 100 | 1000 to 5000
C=CC(=O)N(C)CCN(C)c1ccc2ncnc(Nc3ccc(Oc4ccn5ncnc5c4)c(C)c3)c2n1 [Example 13, N-(2-((4-((4-([1,2,4]triazolo[1,5-a]pyridin-7-yloxy)-3-methylphenyl)amino)pyrido[3,2-d]pyrimidin-6-yl)(methyl)amino)ethyl)-N-methylacrylamide] | 100 to 1000 | 1000 to 5000
